Columns and labels:
[1] = test system: human liver cancer HepG2 cells; test: Tumor inhibition in HepG2 tumor-bearing nude mice (Example 2, Table 4); assay type: in vivo; details: for Tumor weight (x ± s) / Tumor inhibition rate r: dosed once, 150 μl/mouse; for Tumor weight (x ± s): 7th day after administration; for Tumor inhibition rate r: 7th day, relative to negative control; for Ratio of tumor inhibition rates, intratumoral group / intravenous group of the same drug (E7/E1, E8/E2, E10/E4): same drug and dose, local vs systemic administration
Experimental: The tumor-bearing nude mice were widely used for drug studies on chemotherapy rather than immunotherapy in patients with solid tumors. Taking nude mice as experimental subjects, human liver cancer HepG2 cells were used as modeling cells, and 1×10^5 cells/mouse were injected into the right axilla subcutaneously for transplantation tumor modeling, and the average tumor volume of successfully modeled nude mice was 161.3 mm^3. The model animals were randomly divided into 17 groups. The drugs were administered according to the drug and dosing method in Table 4. Each group was dosed once with an injection volume of 150 μl/mouse. On the 7th day after drug administration, the animals were euthanized, and after dissection, the tumor tissue was taken out to determine the tumor weight, and the tumor inhibition rate (r) was calculated relative to the negative control group.

[2] = test system: lung tumor cells (A549); test: Tumor inhibition in A549 tumor-bearing nude mice, co-administration (Example 5, Table 7); assay type: in vivo; details: dosed once, 7th day, probiotic component = heat-inactivated Saccharomyces boulardii
From the text: (§1) The method for determining the effect of combined drug administration in animal experiments was Burgi method (Burgi Y. Pharmacology; Drug actions and reactions. Cancerres. 1978, 38(2), 284-285). The Burgi method was modified by Zhengjun JIN (Zhengjun JIN, Equal probability and curve and “Q50”, Journal of the Second Shanghai Medical College; 1981, 1, 75-86) with q calculated as: q=EA+B/(EA+EB−EA×EB). In the following examples of the present invention, the combinational pharmaceutical efficacies (drug efficacies) of drug A and drug B co-administration was determined by ratio q of actual pharmaceutical efficacy (drug efficacy)/theoretical pharmaceutical efficacy (drug efficacy) according to Zhengjun JIN method, as follows.
Nude mice were used as experimental subjects, and lung tumor cells (A549) were used as modeling cells, 1×10^5 cells/mouse were injected into the right axilla subcutaneously for transplantation tumor modeling, and the average tumor volume of successfully modeled nude mice was 153.7 mm^3. The model animals were randomly divided into 18 groups, and the drugs were administered according to the drug components and administration route in Table 7. Each group was dosed once with an injection volume of […]. Wherein, the probiotic component was heat-inactivated Saccharomyces boulardii, and the administration route of group 16 was intra-tumoral injection of probiotic component followed by intra-tumoral injection of 10% arginine about 2 hours later. On the 7th day after drug administration, the animals were euthanized, and after dissection, the tumor tissue was taken out to determine the tumor weight, and the tumor inhibition rate (r) was calculated relative to the negative control group. Further, the actual efficacy/expected efficacy ratio q of a drug could also be calculated according to the therapeutic effect (tumor inhibition rate).

[3] = test system: mouse embryonic fibroblasts 3T3; test: Local lesion inhibition in 3T3 fibroblast nodule model in nude mice (Example 6, Table 9); assay type: in vivo; details: dosed twice at interval of 2 days, 150 μl/mouse/time, 7th day after final administration; for V (x ± s), volume of local lesions, series B / relative local lesion inhibition rate r′B: intra-nodal injection; for V (x ± s), volume of local lesions, series A / relative local lesion inhibition rate r′A: intraperitoneal injection
From the text: V=0.5×a×b^2, wherein a and b represent the length and width of the local lesion, respectively; Volume of the local lesion (e.g. tumor):
Local lesion (e.g., tumor) proliferation rate (R)=TV/CV×100, wherein TV and CV are the local lesion volumes in the study group and negative control group, respectively;
as §1
Nude mice were used as experimental subjects, and mouse embryonic fibroblasts 3T3 were used as modeling cells. 2×10^4 cells/mouse were injected into the right axilla subcutaneously for transplantation nodule modeling, and the average volume of tumor-like nodules in successfully modeled nude mice was 171.5 mm^3. The model animals were randomly divided into […], and the drugs were administered according to Table 9. Each group except for groups 21-24 were administered by intraperitoneal injection, intra-nodal injection. The drugs used in groups 21-24 were a composition of non-local administration dosage form (dosage form that a probiotic component and a co-administration substance could be administered separately). The administration route of series A was: intraperitoneal injection of probiotic component+intra-nodal injection of co-administration substance; and the administration route of series B was: intraperitoneal injection of co-administration substance+intra-nodal injection of probiotic component. Each group was dosed twice at an interval of 2 days, with an injection volume of 150 μl/mouse/time. On the 7th day after the final administration, the volume (V) of local lesions comprising fibroblasts was measured, and the relative local lesion inhibition rates (r′A, r′B) were calculated for series A and series B, respectively, as compared with the negative control group. Further, the actual drug efficacy/expected efficacy ratio q could also be calculated according to the therapeutic effect (local lesion inhibition rate).

[4] = test system: breast cancer 4T1 cells; test: Short-term tumor inhibition in 4T1 tumor-bearing BALB/c mice (Example 9, Table 14); assay type: in vivo; details: dosed twice, 7th day after final administration; for tumor inhibition rate rA: series A: intravenous injection; for tumor inhibition rate rB: series B: intratumoral injection
From the text: as §1
BALB/c mice were used as experimental subjects, and breast cancer 4T1 cells were used as modeling cells. 0.5×10^6 cells/mouse were injected into the right axilla subcutaneously for transplantation tumor modeling, and the average tumor volume of successfully modeled nude mice was 160.1 mm^3. The model animals were randomly divided into 21 groups, and the drugs were administered by intravenous injection (series A) and intratumoral injection (series B) according to the drugs and doses in Table 14, respectively. All the drugs administered were aqueous liquids, which were formulated according to the method of Example 1. Each group was dosed twice. On the 7th day after final administration, the animals were euthanized, and the tumor tissues were taken out after dissection to determine the tumor weight, and the tumor inhibition rates rA and rB were calculated relative to the corresponding negative control groups in series A and series B.

[5] = test system: breast cancer 4T1 cells; test: Tumor incidence rate after 4T1 cell transplantation (S4T1) on day 30 (Example 12, Table 18); assay type: in vivo, BALB/c mice; details: cells transplanted on 30th day, observed 10th day after transplantation; for Series A S4T1 (tumor incidence rate of 4T1 cell transplantation): series A modeled mice, intratumoral injection; for Series B S4T1 (tumor incidence rate of 4T1 cell transplantation): series B unmodeled mice, intramuscular injection into right hind thigh
Experimental: (§2) BALB/c mice were used as experimental subjects, in which modeled animals were used as series A and unmodeled animals as series B. […] The modeled animals were randomly divided into 18 groups, with 10 animals in each group, and the drugs according to Table 18 was administered via intratumoral injection. BALB/c mice were additionally taken as experimental subjects without modeling, and randomly divided into 18 groups, with 10 animals in each group, the drugs according to Table 18 was administered via intramuscular injection into the right hind thigh. All the study drugs comprising probiotic components were formulated as aqueous formulations according to the preparation method of Example 1, and the other drugs were formulated as aqueous solutions according to the existing well-known methods. Each group was administered twice at an interval of 3 days, and the dosage was 50 ul/mouse/time.

[6] = test system: fibroblast 3T3 cells; test: Tumor incidence rate after 3T3 cell transplantation (S3T3) on day 30 (Example 12, Table 18); assay type: in vivo, BALB/c mice; details: cells transplanted on 30th day, observed 10th day after transplantation; for Series A S3T3 (tumor incidence rate of 3T3 cell transplantation): series A modeled mice, intratumoral injection; for Series B S3T3 (tumor incidence rate of 3T3 cell transplantation): series B unmodeled mice, intramuscular injection into right hind thigh
Experimental: as §2

[7] = intratumoral injection, '+' = arginine injected about 2 hours later

Which results are given for `O=c1[nH]cc(F)c(=O)[nH]1` [1% 5-fluorouracil, 5-fluorouracil]?
Tumor weight (x ± s) ([1]; intratumoral injection): 0.133 ± 0.094 g; Tumor inhibition rate r ([1]; intratumoral injection): 49.5%; Tumor weight (x ± s) ([1]; intravenous injection): 0.139 ± 0.094 g; Tumor inhibition rate r ([1]; intravenous injection): 42.3%; Ratio of tumor inhibition rates, intratumoral group / intravenous group of the same drug (E7/E1, E8/E2, E10/E4) [1]: < 200%; Tumor inhibition rate r [2, 7]: 46.6%; Tumor weight (x ± s) [2, 7]: 0.116 ± 0.076 g; Tumor inhibition rate r ([2]; intravenous injection): 41.3%; Tumor weight (x ± s) ([2]; intravenous injection): 0.122 ± 0.065 g; V (x ± s), volume of local lesions, series B [3]: 1.226 ± 0.217 cm^3; relative local lesion inhibition rate r′B [3]: 14.3%; V (x ± s), volume of local lesions, series A [3]: 1.225 ± 0.211 cm^3; relative local lesion inhibition rate r′A [3]: 9.7%; tumor inhibition rate rA [4]: 38.1%; tumor inhibition rate rB [4]: 44.1%; Series A S4T1 (tumor incidence rate of 4T1 cell transplantation) [5]: 100%; Series B S4T1 (tumor incidence rate of 4T1 cell transplantation) [5]: 100%; Series A S3T3 (tumor incidence rate of 3T3 cell transplantation) [6]: 100%; Series B S3T3 (tumor incidence rate of 3T3 cell transplantation) [6]: 100%

Which results are given for `CCO` [75% ethanol, ethanol]?
Tumor weight (x ± s) ([1]; intratumoral injection): 0.122 ± 0.085 g; Tumor inhibition rate r ([1]; intratumoral injection): 53.6%; Tumor weight (x ± s) ([1]; intravenous injection): 0.226 ± 0.113 g; Tumor inhibition rate r ([1]; intravenous injection): 6.1%; Ratio of tumor inhibition rates, intratumoral group / intravenous group of the same drug (E7/E1, E8/E2, E10/E4) [1]: > 200%; Tumor inhibition rate r [2, 7]: 33.7%; Tumor weight (x ± s) [2, 7]: 0.145 ± 0.084 g; Tumor inhibition rate r ([2]; intravenous injection): 2.7%; Tumor weight (x ± s) ([2]; intravenous injection): 0.203 ± 0.095 g; V (x ± s), volume of local lesions, series B [3]: 1.078 ± 0.221 cm^3; relative local lesion inhibition rate r′B [3]: 24.7%; V (x ± s), volume of local lesions, series A [3]: 1.300 ± 0.197 cm^3; relative local lesion inhibition rate r′A [3]: 4.2%; tumor inhibition rate rA [4]: 2.8%; tumor inhibition rate rB [4]: 21.3%; Series A S4T1 (tumor incidence rate of 4T1 cell transplantation) [5]: 100%; Series B S4T1 (tumor incidence rate of 4T1 cell transplantation) [5]: 100%; Series A S3T3 (tumor incidence rate of 3T3 cell transplantation) [6]: 100%; Series B S3T3 (tumor incidence rate of 3T3 cell transplantation) [6]: 100%
